# Experimental data published in patent US9610320B2, “Surgical applications for BMP binding protein” (THE REGENTS OF THE UNIVERSITY OF CALIFORNIA, priority 2004, dated 2017).
# “Also recorded” adds a separate entry of the source.
# Legend:
# rhBMP-2 [1] = target: T1, rhBMP-2 (Homo sapiens, UniProt P12643); assay: Surface plasmon resonance, interaction of rhBMP-2 and BBP; assay type: binding; conditions: BBP decyclized by prior reduction with β-mercaptoethanol
# T1 sequence (P12643 283-396): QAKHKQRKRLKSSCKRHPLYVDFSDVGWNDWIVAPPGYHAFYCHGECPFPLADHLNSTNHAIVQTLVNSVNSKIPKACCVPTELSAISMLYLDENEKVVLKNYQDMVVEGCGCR
# Experimental: Buffers and chips for the procedure were obtained from Biacore. […] This material was then attached to a CM-5 sensor chip using reagents and procedures supplied by the manufacturer. Running butter was 10 mM HEPES, pH 7.4, 150 mM NaCl, 3 mM EDTA, 0.005% Surfactant P20, The peptide was dissolved in running buffer at concentrations ranging from 1×10^−5 to 1×10^−4 M. Flow rates from 5 to 50 μl/mm and injection volumes of 20 to 100 μl were employed. The regeneration solution was […] glycine-HCl, pH 2.0.
# male Swiss-Weber mice = assay: Mouse hindquarter (muscle pouch) ectopic bone formation assay, BBP; assay type: in vivo; conditions: for Bone Area / Bone Mineral Content: densitometry
# Experimental: Methods: The osteogenic activity of material was tested using male Swiss-Weber mice aged 8 to 10 weeks were used (Taconic Farms, Germantown, N.Y.). Prior to the assay, the BBP was solublized and lyophilized into 2 mg of atelocollagen. The dried material was placed in a #5 gelatin capsule and sterilized by exposure to chloroform vapor. To conduct the assay, mice were anesthetized using 1% isoflurane delivered in oxygen at 2 l/min through a small animal anesthesia machine (VetEquip, Pleasanton, Calif.). Animals were affixed to a surgery board and the fur over the hindquarters shaved. The skin was cleaned with 70% ethanol and a midline incision made over the spine adjacent to the hindquarters. Blunt dissection with scissors was used to expose the quadriceps muscle on one side. A small pouch was made in the muscle using the point of scissors and the #5 capsule containing the test material was inserted into the pouch. The skin was then closed with three 11 mm Michel surgical clips and the animal returned to its cage for monitoring.
# After 21 days the animals were killed and the hindquarter removed. Radiological examination of the specimens was accomplished using a small parts X-Ray cabinet (Faxitron, Wheeling, Ill.). For quantization of bone formation, bone area and the bone mineral content (BMC) of an area of interest encompassing the site of ectopic bone formation was determined using a PIXImus2 small animal densitometer (GE Lunar, Madison, Wis.). Specimens were then placed in buffered formalin and submitted for routine processing for histological examination.
# rhBMP-2 [2] = target: T1, rhBMP-2; assay: Residence time study: BBP and rhBMP-2 on collagen sponges in muscle pouches; assay type: in vivo, rodents
# Source text: Methods: Labeled rhBMP-2 was mixed with BBP or vehicle and applied to collagen sponges. The sponges were implanted into muscle pouches in rodents. At specified times (1, 3 and 7 days), the implants were removed and the amount of BMP remaining determined. Four animals were used in each group.
# Lewis rats [3] = assay: Rat posterolateral intertransverse process spinal fusion L4-L5 (Example 7); assay type: in vivo; conditions: week 8
# Experimental: Methods: Five groups of 50 Lewis rats each underwent posterolateral intertransverse process spinal fusion at vertebrae L4-L5 with implanted: BBP (500 μg) (Group 1); BBP (1000 μg) (Group 2), collagen plus low dose BMP-2 (1 μg) (Group 3), BBP (500 μg) plus low dose BMP (1 μg) (Group 4) and BBP (1000 μg) plus low dose BMP (1 μg) (Group 5). Control groups included a negative group (decortication) and positive control group (collagen plus 3 μg BMP).
# All rats underwent post-operative radiography at 2, 4, 6, and 8 weeks. Manual spinal palpation was performed at 8 weeks, after the time of sacrifice. Bone formation was assessed in histological sections stained with H&E.
# Lewis rats [4] = assay: Rat posterolateral intertransverse process spinal fusion L4-L5 (Example 6); assay type: in vivo; conditions: Group 1: BBP 500 μg only, week 8
# Experimental: All rats underwent post-operative radiography at 2, 4, 6, and 8 weeks. Manual spinal palpation was performed at 8 weeks, the time of sacrifice. Bone formation was assessed in histological sections stained with H&E.
# Lewis rats [5] = assay: Rat posterolateral intertransverse process spinal fusion L4-L5 (Example 8); assay type: in vivo; conditions: for Histology, fused / Manual Palpation, fused: 8th week
# Experimental: Methods: Posterolateral intertransverse process spinal fusion at L4-L5 was performed in five treatment groups of Lewis rats each, and collagen sponges (5×5×13 mm) were implanted into the surgical sites.
# Each sponge was placed in a sterile microfuge tube and either a suspension of BBP (500 μg or 1000 μg) in water or sterile water alone was applied. The sponges were allowed to air dry in a tissue culture hood overnight and then placed at −70° C. for an hour and lyophilized overnight. The tubes (with small holes in the top to allow for lyophilization) were placed in autoclave pouches and sealed. The materials were then sterilized by exposure to chloroform vapor for at least 4 hours.
# The posterolateral intertransverse process spinal fusion at L4-L5 in the rat is a well established procedure in our laboratory 13-17. Briefly, the animal was anesthetized with isofluane and the surgical site was shaved and propped with Betadyne and alcohol. A 3 cm longitudinal midline incision was made through the skin and subcutaneous tissue over L4-L5 down to the lumbodorsal fascia. Then, two separate 2 cm longitudinal paramedial incisions were made in the erector spinae muscles on both sides of L4-L5. The transverse processes of L4-L5 were exposed, cleaned of soft tissue, and decorticated with a high-speed burr. The site was irrigated with saline and the therapeutic test material was placed. The lumbodorsal fascia was closed with 4-0 Prolene (Ethicon, Somerville, N.J.). The skin was closed with 4-0 Prolene and meticulous post-operative care was provided.
# These were compared to control groups. Fusion was evaluated by radiology, histology and manual palpation tests. Animals were sacrificed 8 weeks after surgery.
# The results of the surgeries were assessed radiologically, histologically, and by manual palpation. Posteroanterior radiographs were obtained using a small parts X-ray cabinet (Faxitron Corp., Wheeling, Ill.) on each animal at 2, 4, 6 and 8 weeks. Radiograms were evaluated by three independent observers employing the following standardized scale: 0: no fusion; 1: incomplete fusion with bone formation present; and 2: complete fusion. The scores from the three observes were added and a total of 5 or 6 was regarded as “fused”. Manual palpation of the spine was performed at the time of sacrifice at 8 weeks. To simulate the gold standard for determining fusion in humans, exploration and manual palpation of the fusion mass were performed after death. The level fused was manually palpated with Adson forceps and compared with the adjacent nonfused levels. Each specimen was graded as fused or non-fused by three independent observers. The spine was designated as “not fused” if any of the three observers graded the spine as not fused. After manual palpation, the specimens were decalcified using standard 10% decalcifying solution HCl (Cal-Ex, Fisher Scientific, Fairlawn, N.J.), washed with running tap water, then transferred to 75% ethanol. Sagittal sections were cut carefully at the level of the transverse process. The specimens were imbedded in paraffin and sections of each specimen obtained. These sections were stained with hematoxylin and eosin. They were evaluated by an independent observer as fused and not fused.
# The proportions of subjects in each group judged to be “fused” were compared in sequential two group comparisons with Fisher's exact test using SPSS software. A p score of less than or equal to 0.05 was set for statistical significance.
# [6] = BBP 50 μg implanted with 5 μg rhBMP-2, 21 days
# [7] = BBP 500 μg implanted with 5 μg rhBMP-2, 21 days
smiles,measurement,setting,value
CSCC[C@@H]1NC(=O)[C@H](CCCNC(=N)N)NC(=O)[C@H](C(C)C)NC(=O)[C@H]([C@@H](C)O)NC(=O)[C@H](CO)NC(=O)[C@H](CCCNC(=N)N)NC(=O)[C@@H](N)CSSC[C@@H](C(=O)O)NC(=O)[C@H](CCCNC(=N)N)NC(=O)[C@H](C(C)C)NC(=O)[C@H](Cc2c[nH]c3ccccc23)NC(=O)[C@H](C(C)C)NC(=O)[C@H](CC(N)=O)NC(=O)[C@H](CCC(N)=O)NC(=O)[C@H](C(C)C)NC(=O)[C@H](CCC(N)=O)NC(=O)[C@H](CCC(=O)O)NC(=O)[C@H](C)NC(=O)[C@H](CO)NC1=O [BBP],binding to rhBMP-2,rhBMP-2 [1],no significant binding
same,calcification after implantation of BBP alone,"male Swiss-Weber mice; 500 μg BBP in atelocollagen, mouse muscle, 21 days, radiogram/histology",induced calcification; also recorded: dystrophic calcification primarily associated with intramuscular adipose tissue; also recorded: ectopic dystrophic calcification formation
same,amount of ectopic bone formed versus rhBMP-2 alone,"male Swiss-Weber mice; 500 μg BBP with 5 μg rhBMP-2, densitometry",consistently greater
same,Bone Area,male Swiss-Weber mice; [6],0.159 ± 0.0606 cm^2
same,Bone Mineral Content,male Swiss-Weber mice; [6],0.00388 ± 0.0017 g
same,Bone Area,male Swiss-Weber mice; [7],0.226 ± 0.0270 cm^2
same,Bone Mineral Content,male Swiss-Weber mice; [7],0.00528 ± 0.00068 g
same,increase of rhBMP-2 retention (factor),"rhBMP-2 [2]; collagen sponges in muscle pouches, 1, 3 and 7 days, versus vehicle",about two
same,retention of rhBMP-2 (fold),rhBMP-2 [2]; for up to seven days in vitro and in vivo,two
same,fusion by manual palpation,Lewis rats [3]; Group 1: BBP 500 μg only,0%
same,fusion by manual palpation,Lewis rats [3]; Group 2: BBP 1000 μg only,0%
same,Fusion Rates,Lewis rats [4],14%
same,fusion with BBP alone,"Lewis rats [5]; 500 μg or 1000 μg BBP alone, any time point",none of the animals in low and high dose BBP groups developed fusion at any time points; also recorded: did not provide fusion
same,"radiological examination, fused, Week 2nd",Lewis rats [5]; high dose BBP only (1000 μg),0%
same,"radiological examination, fused, Week 4th",Lewis rats [5]; high dose BBP only (1000 μg),0%
same,"radiological examination, fused, Week 6th",Lewis rats [5]; high dose BBP only (1000 μg),0%
same,"radiological examination, fused, Week 8th",Lewis rats [5]; high dose BBP only (1000 μg),0%
same,"Histology, fused",Lewis rats [5]; high dose BBP only (1000 μg),0%
same,"Manual Palpation, fused",Lewis rats [5]; high dose BBP only (1000 μg),0%
same,"radiological examination, fused, Week 2nd",Lewis rats [5]; low dose BBP only (500 μg),0%
same,"radiological examination, fused, Week 4th",Lewis rats [5]; low dose BBP only (500 μg),0%
same,"radiological examination, fused, Week 6th",Lewis rats [5]; low dose BBP only (500 μg),0%
same,"radiological examination, fused, Week 8th",Lewis rats [5]; low dose BBP only (500 μg),0%
same,"Histology, fused",Lewis rats [5]; low dose BBP only (500 μg),0%
same,"Manual Palpation, fused",Lewis rats [5]; low dose BBP only (500 μg),0%
